Measured values from patent publication US20040022782A1, “Cyclitol containing carbohydrates from human tissue which regulate glycogen metabolism” (Rodaris Pharmaceuticals Limited, priority 1996, published 2004).

What was measured:
[1] = molecular target: T1, pyruvate dehydrogenase phosphatase isolated from bovine heart (Bos taurus, UniProt P35816); assay: Stimulation of pyruvate dehydrogenase (PDH) phosphatase; assay type: biochemical
T1 construct: pyruvate dehydrogenase phosphatase isolated from bovine heart; from tissue; host or cells: bovine heart
T1 sequence (P35816 72-538): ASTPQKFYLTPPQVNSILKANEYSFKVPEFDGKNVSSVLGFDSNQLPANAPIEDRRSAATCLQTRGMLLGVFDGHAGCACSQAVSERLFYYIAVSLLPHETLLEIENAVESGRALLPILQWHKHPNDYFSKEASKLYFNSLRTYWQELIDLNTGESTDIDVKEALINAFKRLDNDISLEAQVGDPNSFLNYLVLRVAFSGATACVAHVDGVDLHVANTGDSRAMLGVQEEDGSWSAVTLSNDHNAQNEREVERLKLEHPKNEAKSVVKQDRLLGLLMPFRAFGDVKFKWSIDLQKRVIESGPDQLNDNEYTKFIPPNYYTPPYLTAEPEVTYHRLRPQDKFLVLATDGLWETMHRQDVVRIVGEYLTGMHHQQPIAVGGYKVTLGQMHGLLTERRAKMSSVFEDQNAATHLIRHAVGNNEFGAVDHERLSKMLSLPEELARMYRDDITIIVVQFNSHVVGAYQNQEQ
T1 sequence (O46504 32-878 partner limits assumed): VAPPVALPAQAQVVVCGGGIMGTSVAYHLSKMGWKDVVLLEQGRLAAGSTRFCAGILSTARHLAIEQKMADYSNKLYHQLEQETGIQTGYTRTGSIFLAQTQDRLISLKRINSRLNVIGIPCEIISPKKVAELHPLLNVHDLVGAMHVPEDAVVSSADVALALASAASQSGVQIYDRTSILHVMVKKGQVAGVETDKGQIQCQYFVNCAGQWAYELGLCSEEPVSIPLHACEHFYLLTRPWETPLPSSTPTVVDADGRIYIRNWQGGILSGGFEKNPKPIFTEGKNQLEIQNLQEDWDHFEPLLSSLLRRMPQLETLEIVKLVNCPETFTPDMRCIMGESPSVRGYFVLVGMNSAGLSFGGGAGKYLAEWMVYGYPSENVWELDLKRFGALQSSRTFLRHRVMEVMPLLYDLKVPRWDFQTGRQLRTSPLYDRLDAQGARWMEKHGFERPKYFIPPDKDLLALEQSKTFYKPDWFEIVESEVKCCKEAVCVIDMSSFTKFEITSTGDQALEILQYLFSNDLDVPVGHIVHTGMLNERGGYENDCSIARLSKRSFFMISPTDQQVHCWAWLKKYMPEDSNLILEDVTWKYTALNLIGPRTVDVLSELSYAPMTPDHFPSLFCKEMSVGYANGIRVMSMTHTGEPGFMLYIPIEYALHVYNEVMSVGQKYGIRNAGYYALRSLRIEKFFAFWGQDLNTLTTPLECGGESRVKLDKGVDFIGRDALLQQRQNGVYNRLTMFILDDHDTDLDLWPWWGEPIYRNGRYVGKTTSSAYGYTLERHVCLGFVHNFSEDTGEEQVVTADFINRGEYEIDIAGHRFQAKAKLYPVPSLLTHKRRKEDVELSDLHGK
Procedure: Pyruvate dehydrogenase complex (PDC) and the PDH phosphatase were prepared and stored at −80° C. until use. The assay for both PDH phosphatases, in the presence of absence of insulin mediator, was based upon the initial rate of activation of inactivated, phosphorylated PDH complex. […] A two stage assay was used to quantitate the phosphatase activity. A sample of inactivated PDC (50 μL) was preincubated at 30° C. with 1 mg/mL fat-free BSA, 10 mM MgCl2, 0.1 mM CaCl2 and […] DTT in 20 mM potassium phosphate buffer at pH 7.0 (total volume 250 μL) for three minutes. At this time, 10 μL of the PDH phosphatase and 10 μL of IPG were added and the incubation continued for a further 2 min. At the end of this time, 200 μL of the mix was removed and added to 100 μL of 300 mM NaF. The activated PDH was determined at the second stage photometrically by measuring the rate of production of NADH. One hundred microliters of the stopped reaction were added to 1 mL of reaction mixture containing 50 mM potassium phosphate buffer at pH 8.0, 2.5 mM β-NAD^+, 0.2 mM TPP, 0.13 mM coenzyme A, 0.32 mM DTT and 2 mM sodium pyruvate. The production of NADH was followed at 340 nm for 5 min.
Three samples of liver P-type used. All were suspended on day of use at the rate of 1 g liver in […] water. All three preparations were tested before and after treatment with dithizone, while the one preparation was also treated with Mn after dithizone to attempt to reactivate it. The reactivation procedure was to preincubate a de-metallized sample with 2.7 mM Mn for 15 min before it was added to the inactivated PDH mix.
The P-1 sample used here was the same as that used in previous experiment although a second tube of that composite sample. The dithizone treated sample was the same as that used previously. For reactivation, the de-medalist sample was pre-incubated for 15 mins with either 2.7 mM Mn, 1.8 mM Zn or 2.7 mM Mn-1.8 mM Zn. All samples tested on normal assay system using 10 μl P′ase and 5 ul of sample.

[2] = test system: Glycogen synthase; assay: Glycogen synthase activity in rat fat cells; assay type: cell-based; details: 5 min incubation, 20 μl insulin (25 mU/ml) or 10 μl placenta IPG
Procedure: Glycogen synthase activity was assayed as follows. Fat cells were prepared from epididymal adipose tissue using 140-150 g rats (Wistar strain). Fat pads from 3 rats were cut into small pieces and incubated in 8 ml of Krebs ringer bicarbonate containing 2% albumin plus 24 mg of collagenase for 25 minutes at 37° C. The isolated cells were filtered and washed in 3×10 ml Krebs ringer phosphate medium containing 30 mg/ml of bovine serum albumin (Fraction v, Sigma), the pH was adjusted to 7.4 with NaOH after addition of albumin. The washed cells were also resuspended in Krebs ringer phosphate (10 ml of medium/g of original tissue).
For measurement of enzyme activities, three incubation vessels were set up, each contained 5 ml cells. There were no additions to the first, the second contained 20 μl insulin (25 mU/ml) and the third 10 μl placenta IPG. […]
The reaction was stopped with 0.5 ml cold buffer (100 mM KF/10 mM EDTA/1 mM benzamidine (4), pH 7.0) and the cells homogenized and transferred to Eppendorf tubes. These were spun at 10,000 g for 15 min and the middle layer collected for enzyme assay all tubes were set up in duplicate and measured in the presence of 0.01 mM glucose 6-phosphate except the maximally activated glycogen synthase tube which contained 7.2 mM glucose 6-phosphate. […] Glycogen synthase activity is expressed as a percentage of the total synthase activity (G6P maximum).

[3] = test system: rat liver; assay: IPG release in rat liver following infusion with insulin; assay type: in vivo; details: 2 minutes after insulin infusion
[4] = reactivation experiment, 10 μl P'ase and 5 ul of sample, 2.7 mM Mn, 1.8 mM Zn, Treated = dithizone

## [Mn+2] [Mn, manganese]
[1]; 10^−4M Mn (assay no: 3)
  effect on P'ase activity: no effect
[1]; +Mg2+ + Ca2+
  PDH phosphatase (activity): Δ 0.680 OD/min (2)
[1]; +Mg2+, no Ca2+
  PDH phosphatase (activity): Δ 0.000 OD/min (6)
[1]; dithizone experiment, Vol used 5 μl, Treated = dithizone, Mn 2.7 mM
  Units/g: 0 Units/g
[1]; dithizone experiment, Vol used 5 μl, liver P-type 1 g liver in 10 μl water, Treated = dithizone, Mn 2.7 mM
  % stimulation: −11%
[1]; [4]
  % stimulation: +12%

## [Zn+2] [Zn]
[1]; [4]
  % stimulation: +122%

## insulin
[2]
  Stimulation as % of G6P Maximum: 6.54%
[3]
  increase in PDH phosphatase stimulating activity of rat liver: two-fold increase in activity
